ChEMBL document CHEMBL1201862, “PubChem BioAssay data set” (2004)
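In this assay, cells in 96-well plates receive the compound at five concentrations for 48 hours. Endpoints are linearly interpolated between the surrounding concentrations. At the GI50, growth is halved.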 Active and inactive are the calls of the source. Rule as the data show it: active = GI50 up to about 1.1 µM and inactive = higher.

Assays:
Assay in all cases: growth of human tumour cells (NCI), 48 h
[1] = test system: SNB-75
[2] = test system: HCC 2998
[3] = test system: OVCAR-5
[4] = test system: SW-620
[5] = test system: HT-29
[6] = test system: 786-0
[7] = test system: UACC-62
[8] = test system: SNB-19
[9] = test system: SK-MEL-28
[10] = test system: UACC-257
[11] = test system: RXF 393
[12] = test system: ACHN
[13] = test system: MDA-N
[14] = test system: NCI/ADR-RES
[15] = test system: CCRF-CEM
[16] = test system: MDA-MB-435
[17] = test system: NCI-H522
[18] = test system: NCI-H23
[19] = test system: PC-3
[20] = test system: MCF7
[21] = test system: BT-549
[22] = test system: KM12
[23] = test system: HOP-62
[24] = test system: SF-295
[25] = test system: Malme-3M
[26] = test system: LOX IMVI
[27] = test system: Hs-578T
[28] = test system: SN12C
[29] = test system: HCT-116
[30] = test system: SK-MEL-2
[31] = test system: SK-MEL-5
[32] = test system: SK-OV-3
[33] = test system: MDA-MB-231
[34] = test system: NCI-H460
[35] = test system: NCI-H226
[36] = test system: EKVX
[37] = test system: DU-145
[38] = test system: CAKI-1
[39] = test system: UO-31
[40] = test system: SF-268
[41] = test system: A549
[42] = test system: HOP-92
[43] = test system: K562
[44] = test system: HCT-15
[45] = test system: IGROV-1
[46] = test system: COLO 205
[47] = test system: T47D
[48] = test system: TK-10
[49] = test system: OVCAR-8
[50] = test system: OVCAR-3
[51] = test system: OVCAR-4
[52] = test system: MOLT-4
[53] = test system: SF-539
[54] = test system: U-251

Measured: GI50

COC1(OC)CC(CO)(COc2cc(Cl)nc(N)n2)C1
inactive: [1] > 100 µM | [2] > 100 µM | [3] > 100 µM | [4] > 100 µM | [5] > 100 µM | [6] > 100 µM | [7] > 100 µM | [8] > 100 µM | [9] > 100 µM | [10] > 100 µM | [11] > 100 µM | [12] > 100 µM | [13] > 100 µM | [14] > 100 µM | [15] > 100 µM | [16] > 100 µM | [17] > 100 µM | [18] > 100 µM | [19] > 100 µM | [20] > 100 µM | [21] > 100 µM | [22] > 100 µM | [23] > 100 µM | [24] > 100 µM | [25] > 100 µM | [26] > 100 µM | [27] > 100 µM | [28] > 100 µM | [29] > 100 µM | [30] > 100 µM | [31] > 100 µM | [32] > 100 µM | [33] > 100 µM | [34] > 100 µM | [35] > 100 µM | [36] > 100 µM | [37] > 100 µM | [38] > 100 µM | [39] > 100 µM | [40] > 100 µM | [41] > 100 µM | [42] > 100 µM | [43] > 100 µM | [45] > 100 µM | [46] > 100 µM | [47] > 100 µM | [48] > 100 µM | [49] > 100 µM | [50] > 100 µM | [51] > 100 µM | [52] > 100 µM | [53] > 100 µM | [54] > 100 µM
> 100 µM: [44]
